Data as given in US12534436B2, “Disubstituted adamantyl derivative or pharmaceutically acceptable salt thereof, and pharmaceutical composition for suppressing cancer growth comprising same as active ingredient” (ONECUREGEN CO., LTD., priority 2020, dated 2026).

Tests used:
Type in all cases: cell-based, human
Complex II/III = test: Mitochondrial respiration assay, complex II/III (succinate); settings: HepG2 cells (FIG. 4C)
Procedure: Compounds that suppress mitochondrial respiration promote degradation of HIF-1α by increasing cellular oxygen content. Accordingly, it was investigated whether LW1564 (compound 21-3) affected mitochondrial respiration by measuring the oxygen consumption rate (OCR). Oxygen consumption was measured using an Oxytherm Clark-type electrode system (Hansatech, Norfolk, UK) (Chou, T. C. Theoretical basis, experimental design, and computerized simulation of synergism and antagonism in drug combination studies. Pharmacol. Rev. 58, 621-681 (2006)). HepG2 cells (2×10^7) were cultured with 2 μM LW1564 (compound 21-3) for 6 hours, collected, and then OCR was measured at 37° C. for 5 minutes with a thermoregulated controlled circulating system. For […] studies, digitonin-permeabilised HepG2 cells (2×10^7) were read on a detection device containing 2 ml of respiratory buffer (0.25 M sucrose, 2 mM KH2PO4, 5 mM MgCl2, 1 mM EDTA, 1 mM ADP, 20 mM MOPS, pH 7.4). The following substrates, which provide electrons to the components in the ETC, were then added: 5 mM sodium pyruvate, 5 mM sodium malate, 5 mM sodium succinate, 5 mM L-ascorbic acid and 0.2 mM N,N,N,N-tetra methyl-p-phenylenediamine (TMPD). Complex I, III and IV inhibitors (rotenone, antimycin A and KCN, respectively) were added to a final concentration of 1 μM. […]

intracellular oxygen = test: Intracellular oxygen with hypoxia probe MAR, HepG2 cells; settings: hypoxic conditions, 6 hours, 500 nM MAR (FIG. 3D)
Procedure: Since a decrease in mitochondrial respiration means an increase in the amount of intracellular oxygen, it was evaluated whether the amount of intracellular oxygen increased using MAR, an azo-based hypoxia probe that produces fluorescence under hypoxic conditions. Under hypoxic states, HepG2 cells were cultured with LW1564 (compound 21-3) for 6 hours, stained with 500 nM MAR according to the manufacturer's instructions (Chou, T. C. Theoretical basis, experimental design, and computerized simulation of synergism and antagonism in drug combination studies. Pharmacol. Rev. 58, 621-681 (2006)), and analyzed with an IncuCyte ZOOM® system (Essen BioScience, MI, USA).

AMPK signaling = test: Western blot of AMPK/mTOR signaling in HepG2 cells
HepG2 cells = test: HepG2 cell proliferation at different glucose concentrations; settings: low glucose (3 mM) versus high glucose (25 mM) medium (FIG. 5C)
Procedure: The glycolytic function is activated in many cancer cells. Accordingly, it was investigated whether LW1564 (compound 21-3) affected cancer cell proliferation according to glucose concentration. […] Next, in order to investigate the combined effect of LW1564 (compound 21-3), […] on the proliferation of HepG2 cells, Combination Index (CI) and isobologram analysis were performed. The CI value quantitatively represents the correlation between two drugs through GI50 analysis indicating the cell proliferation suppression concentration, and synergistic, additive and antagonistic effects are defined as CI<1, CI=1 and CI>1.

## COc1cc2c(cc1OC)CN(C(=O)C13CC4CC(C1)CC(c1ccc(OCC(=O)N5CCN(Cc6ccc(C(F)(F)F)cc6)CC5)cc1)(C4)C3)CC2 [Compound 21c, 2-(4-(3-(6,7-Dimethoxy-1,2,3,4-tetrahydroisoquinoline-2-carbonyl)adamantan-1-yl)phenoxy)-1-(4-(4-(trifluoromethyl)benzyl)piperazin-1-yl) ethanone]
Complex II/III
  oxygen consumption rate in the presence of succinate: did not affect the oxygen consumption rate
Intracellular oxygen
  MAR fluorescence (hypoxia probe): significantly reduced fluorescence
AMPK signaling; concentration-dependent (FIG. 5A)
  phosphorylation of mTOR: suppressed phosphorylation of mTOR
AMPK signaling; western blot (FIG. 5A)
  phosphorylation of AMPK and ACC: promoted phosphorylation of AMPK and its downstream protein, Acetyl-CoA carboxylase (ACC)
HepG2 cells
  cell proliferation suppression according to glucose concentration: stronger cell proliferation suppression efficacy in cells in a medium with a low glucose concentration (3 mM)
